# Data taken from US12404279B2, “Deubiquitinase inhibitors and methods of use thereof” (Molecure S.A., priority 2021, dated 2025).
# Counter-ions that a name gives are not always drawn. Like-named read-outs stand apart in the source and are kept apart here.
# Biological target: full-length USP7 (Homo sapiens (Human), UniProt Q93009)
# Assay: Enzymatic assay to determine IC50 of USP7 inhibitors (Ubiquitin-Rhodamine 110 cleavage)
# Type: biochemical
# Details: for IC50: 0.5 nM USP7, 0.5 μM Ubiquitin-Rhodamine 110, 45 min at 37° C.; for inhibition at 1 µM: read-out: percent value of inhibition of USP7 activity
# Procedure, shortened: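 Full-length USP7 (0.5 nM) in 50 mM HEPES pH 7.5, 150 mM NaCl, 1 mM DTT, 1 mg/ml BSA, 0.05% Tween20 was preincubated 15 min with DTT at room temperature before compound addition.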
# full-length USP7, sequence (Q93009 whole entry): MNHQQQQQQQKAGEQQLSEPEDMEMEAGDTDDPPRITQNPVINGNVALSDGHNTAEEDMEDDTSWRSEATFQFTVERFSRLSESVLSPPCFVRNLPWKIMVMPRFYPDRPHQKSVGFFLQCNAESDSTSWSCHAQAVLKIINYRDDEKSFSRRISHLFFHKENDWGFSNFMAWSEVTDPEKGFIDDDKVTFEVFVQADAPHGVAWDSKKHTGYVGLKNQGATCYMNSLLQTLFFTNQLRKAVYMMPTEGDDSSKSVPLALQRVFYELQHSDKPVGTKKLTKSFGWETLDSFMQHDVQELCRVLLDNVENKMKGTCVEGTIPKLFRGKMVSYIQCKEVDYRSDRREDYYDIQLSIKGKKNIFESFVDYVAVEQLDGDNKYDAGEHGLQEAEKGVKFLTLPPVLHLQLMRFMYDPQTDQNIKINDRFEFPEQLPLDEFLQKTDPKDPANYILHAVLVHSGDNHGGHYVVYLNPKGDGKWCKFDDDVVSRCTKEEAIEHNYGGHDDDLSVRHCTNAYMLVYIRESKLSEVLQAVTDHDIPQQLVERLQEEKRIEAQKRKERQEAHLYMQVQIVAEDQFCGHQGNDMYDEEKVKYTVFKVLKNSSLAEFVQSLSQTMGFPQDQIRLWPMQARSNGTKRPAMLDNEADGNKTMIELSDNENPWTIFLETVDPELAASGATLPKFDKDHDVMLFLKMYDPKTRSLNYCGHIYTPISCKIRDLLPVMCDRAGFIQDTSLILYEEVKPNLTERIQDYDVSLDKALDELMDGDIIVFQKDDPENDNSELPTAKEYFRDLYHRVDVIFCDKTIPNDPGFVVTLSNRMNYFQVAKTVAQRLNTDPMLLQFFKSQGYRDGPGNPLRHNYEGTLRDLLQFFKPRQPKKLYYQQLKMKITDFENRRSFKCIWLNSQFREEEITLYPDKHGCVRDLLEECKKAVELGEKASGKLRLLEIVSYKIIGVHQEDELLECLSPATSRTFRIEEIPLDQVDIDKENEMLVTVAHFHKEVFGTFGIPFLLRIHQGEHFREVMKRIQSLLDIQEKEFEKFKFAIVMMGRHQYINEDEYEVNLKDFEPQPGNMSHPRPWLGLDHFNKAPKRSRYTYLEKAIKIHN
Compound,IC50 [nM],further results
"Cc1cc(C(F)(F)F)nc(-c2ccnc3cc(CN4C(=O)C5C(C4=O)C5(C)C)sc23)c1CN1CC[C@@H]2CNC[C@@H]21 (stereo partly drawn) [Example 153, 3-((7-(3-(((3aR,6aR)-hexahydropyrrolo[3,4-b]pyrrol-1(2H)-yl)methyl)-4-methyl-6-(trifluoromethyl)pyridin-2-yl)thieno[3,2-b]pyridin-2-yl)methyl)-6,6-dimethyl-3-azabicyclo[3.1.0]hexane-2,4-dione trihydrochloride]",< 500,–
"Cc1nc(C(F)(F)F)cc(-c2ccnc3cc(CN4C(=O)C5C(C4=O)C5(C)C)sc23)c1CC1CCNC1 (stereo not shown) [Example 89, 6,6-dimethyl-3-((7-(2-methyl-3-(pyrrolidin-3-ylmethyl)-6-(trifluoromethyl)pyridin-4-yl)thieno[3,2-b]pyridin-2-yl)methyl)-3-azabicyclo[3.1.0]hexane-2,4-dione hydrochloride]",< 500,–
"Cc1cc(Cl)nc(-c2ccnc3cc(CN4C(=O)C5C(C4=O)C5(C)C)sc23)c1NC1CC(F)(F)C1 (stereo not shown) [Example 123, 3-((7-(6-chloro-3-((3,3-difluorocyclobutyl)amino)-4-methylpyridin-2-yl)thieno[3,2-b]pyridin-2-yl)methyl)-6,6-dimethyl-3-azabicyclo[3.1.0]hexane-2,4-dione 2,2,2-trifluoroacetate]",500 to 1000,–
"Cc1cc(C(F)(F)F)nc(-c2ccnc3cc(CN4C(=O)C5C(C4=O)C5(C)C)sc23)c1CC1CNCCN1 (racemic) [Example 35, 6,6-dimethyl-3-((7-(4-methyl-3-(piperazin-2-ylmethyl)-6-(trifluoromethyl)pyridin-2-yl)thieno[3,2-b]pyridin-2-yl)methyl)-3-azabicyclo[3.1.0]hexane-2,4-dione hydrochloride]",< 500,–
"Cc1cc(Cl)cc(-c2ccnc3cc(CC4C(=O)NCC4O)sc23)c1O[C@H]1CCCNC1 (stereo partly drawn) [Example 179, 3-((7-(5-chloro-3-methyl-2-(((S)-piperidin-3-yl)oxy)phenyl)thieno[3,2-b]pyridin-2-yl)methyl)-4-hydroxypyrrolidin-2-one 2,2,2-trifluoroacetate]",< 500,–
"CN[C@H]1CCCN(C(=O)c2c(C)cc(C(F)(F)F)nc2-c2ccnc3cc(CN4C(=O)C5C(C4=O)C5(C)C)sc23)C1 (stereo partly drawn) [Example 144, 6,6-dimethyl-3-((7-(4-methyl-3-((S)-3-(methylamino)piperidine-1-carbonyl)-6-(trifluoromethyl)pyridin-2-yl)thieno[3,2-b]pyridin-2-yl)methyl)-3-azabicyclo[3.1.0]hexane-2,4-dione trihydrochloride]",1000 to 10000,–
"CC1(C)C2C(=O)N(Cc3cc4nccc(-c5cc(C(F)(F)F)nn5CC5CNCCO5)c4s3)C(=O)C21 (stereo not shown) [Example 7, 6,6-dimethyl-3-((7-(1-(morpholin-2-ylmethyl)-3-(trifluoromethyl)-1H-pyrazol-5-yl)thieno[3,2-b]pyridin-2-yl)methyl)-3-azabicyclo[3.1.0]hexane-2,4-dione 2,2,2-trifluoroacetate]",–,inhibition at 1 µM: < 20%
"Cc1cc(Cl)nc(-c2ccnc3cc(CN4C(=O)C5C(C4=O)C5(C)C)sc23)c1NC1CC2(CNC2)C1 (stereo not shown) [Example 131, 3-((7-(3-((2-azaspiro[3.3]heptan-6-yl)amino)-6-chloro-4-methylpyridin-2-yl)thieno[3,2-b]pyridin-2-yl)methyl)-6,6-dimethyl-3-azabicyclo[3.1.0]hexane-2,4-dione hydrobromide]",< 500,–
"Cc1cc(C#N)nc(-c2ccnc3cc(CN4C(=O)C5C(C4=O)C5(C)C)sc23)c1C(=O)N(C)CCN(C)C (stereo not shown) [Example 42, 6-cyano-2-(2-((6,6-dimethyl-2,4-dioxo-3-azabicyclo[3.1.0]hexan-3-yl)methyl)thieno[3,2-b]pyridin-7-yl)-N-(2-(dimethylamino)ethyl)-N,4-dimethylnicotinamide]",–,"inhibition at 1 µM (at 1 μM of the test compound, given where IC50 not determined yet): < 20%"
"Cc1nc(C#N)cc(-c2ccnc3cc(CN4C(=O)C5C(C4=O)C5(C)C)sc23)c1NC1CCNC1 (stereo not shown) [Example 26, 4-(2-((6,6-dimethyl-2,4-dioxo-3-azabicyclo[3.1.0]hexan-3-yl)methyl)thieno[3,2-b]pyridin-7-yl)-6-methyl-5-(pyrrolidin-3-ylamino)picolinonitrile 2,2,2-trifluoroacetate]",< 500,–
